According to patent US7534769B2, “Compositions and methods for enhancing delivery of therapeutic agents to cells” (Canji, Inc., priority 1996, dated 2009):
“Also recorded” adds a separate entry of the source. Blank lines part the entries; values can stand above or below the molecule they belong to.

What was measured:
bladder = assay: Gene transfer activity of water-soluble Syn3 analogs in vivo, whole organ Xgal staining; set-up: species or system rat; settings: for gene transfer activity compared to controls: 1 mg/ml
Procedure: A concentration of 1 mg/ml was chosen for initial testing of both compounds.
The solution of A-TMA was prepared by dissoluting 10 mg of A-TMA into 10 ml Dulbecco's PBS. Glycerol was added to provide a final concentration of 10 mg/ml. All solutions were sterile filtered prior to use (0.2 μm Acrodisc syring filter). The virus (BGCG 70AAB) was diluted 1:10 into either this A-TMA solution, or into Dulbecco's PBS-glycerol prior to administration.
Ten mg of A-HCl was dissoluted into this buffer and sterile filtered prior to use (0.2 μm Acrodisc suring filter). The virus (BGCG 70AAB) was diluted 1:10 into this solution prior to administration. For comparison, the virus diluted into this buffer without A-HCl was also tested.
Female HSD rats were anesthetized using isofluorane. The rats were transuretherally catheterized into the bladder using PE50 tubing lubricated with K-Y jelly. A tie-off was installed on the external urethra to prevent back leakage. Urine, if any, was removed and the bladder was flushed with 0.5 ml PBS and emptied. rAd was diluted to the desired concentration (1:10) and instilled for 45 minutes. The dosing material was removed, noting the return volume. The bladder was flushed with 0.5 ml PBS and emptied. The tie-off and catheter were removed, and the animals were allowed to recover in cages.
After 48 hours, the animals were sacrificed and their bladders inflation fixed with 0.5 ml fixative for 1 hour. The bladders were then rinsed overnight and whole organ Xgal staining was conducted.

[1] = Solubility and dissolution behaviour; type: physicochemical
bladder epithelium [2] = assay: Effect of Big CHAP sources, purified Big CHAP and impurities on rAd-βgal gene transfer to bladder epithelium; type: in vivo, rat; settings: for rAd mediated gene transfer and expression: Big CHAP at 6 mg/ml; for epithelial gene expression: increasing concentrations of BC (Sigma), 20 mg/ml; for cystitis / bladder irritation: Impurity I; for gene transfer and expression: column chromatography purified BC, 30 mg/ml
Procedure: Alternate commercial sources of Big CHAP (BC) were tested for the ability to enhance rAd (recombinant adenovirus) mediated gene transfer and expression, essentially according to the method described above in Example 8.
The results are depicted in FIG. 17.
rAd-βgal was formulated in 30 mg/ml of the column chromatography purified material of both BCs and gene transfer to the bladder epithelium tested as described above.
Three impurities of BC (CALBIOCHEM®) were detected by TLC (FIG. 15) and isolated by column chromatography for gene transfer studies. Impurity I and a mixture of impurity II and impurity III were diluted in VPBS (0.6 mg/ml or 6 mg/ml) to test their efficiency in improving rAd mediated gene transfer to the bladder epithelium. […] Positive control formulation (BC, CALBIOCHEM®, upper panel, left), and the negative control formulations (BC—CALBIOCHEM®, column chromatography purified and BC—Sigma) were used at a concentration of 6 mg/ml (upper panel, right).
In this experiment, 10 mg/ml of BC (Sigma, FIG. 20 upper middle panel) was reconstituted with Impurity III (upper right panel), impurity II (lower left panel), or synthesized analog of impurity III (lower right panel). rAd-βgal, 1×10^11 PN/ml, was prepared in the spiked formulations and administered intravesically as described above.
Calbiochem Big CHAP was fractionated by column chromatography to obtain essentially pure impurities “1”, “2”, and “3” for biological testing as well as structural analysis.

bladder epithelium [3] = assay: rAd-βgal gene transfer to bladder epithelium in detergent formulations, Xgal staining score and gross pathology; settings: detergents at their critical micellization concentration
Procedure: rAd-βgal was formulated in different detergents at their critical micellization concentration to evaluate efficiency of gene transfer to the bladder epithelium. Female rats (about 200 g b/w, Harlan Sprague Dawley) were anesthetized with isoflurane and received a single intravesical administration of rAd-βgal (1×10^11 PN/ml) in different detergent formulations (see Table I). Before instillation, bladders were flushed with PBS and then emptied. rAd-βgal was then instilled in a volume of 0.5 ml. The instilled solution was retained in the bladder for 45 minutes. The bladders were then flushed with PBS, and the animals were permitted to recover from the procedure. 48 hours after administration, the rats were sacrificed, the bladders harvested, and fixed in formalin. After fixation, the bladders were opened longitudinally so that the urothelium was exposed to the chromogen (Xgal), that is converted to a blue color, if reporter gene (β-galactosidase) expression is present. The luminal epithelial surface of the whole bladder was photographed an blue staining scored: + (minimal staining), ++ (moderate staining), +++ intense staining covering the whole bladder epithelial surface.
Briefly, in anaesthetized female rats rAd-βgal (1×10^11 PN/ml) was administered into the bladder via an intravesical catheter. rAd-βgal was formulated in different concentrations of Big CHAP (CALBIOCHEM®). A volume of 0.5 ml was injected and remained instilled in the bladder for 45 minutes. The animals were sacrificed 48 hours later, the bladder fixed in 4% formalin/glutaraldehyde, opened longitudinally, and the β-galactosidase enzyme activity measured using Xgal substrate. The intensity of blue staining correlates with the βgal-transgene expression.
Effects of higher recombinant adenovirus concentrations were also tested. Briefly, in anaesthetized female rats different concentrations of rAd-βgal, formulated in 7 mM Big CHAP (CALBIOCHEM®) were administered into the bladder via an intravesical catheter. The animals were sacrificed 48 hours later, the bladder fixed in 4% formalin/glutaraldehyde, opened longitudinally, and Xgal stained.

solubility in saline [1]: not completely soluble in saline | pH of solution ([1]; dissolution into dH2O): 4.7
Molecule: C[C@H](CCC(=O)NCCCN(CCCN)C(=O)CC[C@@H](C)[C@H]1CC[C@H]2[C@@H]3[C@H](O)C[C@@H]4C[C@H](O)CC[C@]4(C)[C@H]3C[C@H](O)[C@]12C)[C@H]1CC[C@H]2[C@@H]3[C@H](O)C[C@@H]4C[C@H](O)CC[C@]4(C)[C@H]3C[C@H](O)[C@]12C.Cl [A-HCl]
gene transfer activity compared to controls (bladder): significantly above those levels obtained by controls

Molecule: C[C@H](CCC(=O)NCCCN(CCC[N+](C)(C)C)C(=O)CC[C@@H](C)[C@H]1CC[C@H]2[C@@H]3[C@H](O)C[C@@H]4C[C@H](O)CC[C@]4(C)[C@H]3C[C@H](O)[C@]12C)[C@H]1CC[C@H]2[C@@H]3[C@H](O)C[C@@H]4C[C@H](O)CC[C@]4(C)[C@H]3C[C@H](O)[C@]12C.[Cl-] [A-TMA]
gene transfer activity compared to controls (bladder): significantly above those levels obtained by controls | gene transfer activity (bladder; individual animals, 1 mg/ml in PBS/1% Glycerol (A-TMA) or Buffer D (A-HCl)): + +

Molecule: C[C@H](CCC(=O)N(CCCNC(=O)[C@H](O)[C@@H](O)[C@H](O)[C@H](O)CO)CCCNC(=O)[C@H](O)[C@@H](O)[C@H](O)[C@H](O)CO)[C@H]1CC[C@H]2[C@@H]3[C@H](O)C[C@@H]4C[C@H](O)CC[C@]4(C)[C@H]3C[C@H](O)[C@]12C [Big CHAP (Sigma), N,N,bis-(3-D-gluconamidopropyl)-cholamide]
gene transfer (bladder epithelium [2]; 26 mg/ml): found to enhance gene transfer | rAd mediated gene transfer and expression (bladder epithelium [2]; listed as BC—Sigma): did not markedly improve rAd mediated gene transfer | rAd mediated gene transfer and expression (bladder epithelium [2]; listed as Sigma Big CHAP): does not enhance gene transfer | epithelial gene expression (bladder epithelium [2]): enhanced gene transfer at higher concentrations | epithelial gene expression (bladder epithelium [2]; listed as Sigma BC): improved epithelial gene expression

Molecule: C[C@H](CCC(=O)N(CCCNC(=O)[C@H](O)[C@@H](O)[C@H](O)[C@H](O)CO)CCCNC(=O)[C@H](O)[C@@H](O)[C@H](O)[C@H](O)CO)[C@H]1CC[C@H]2[C@@H]3[C@H](O)C[C@@H]4C[C@H](O)CC[C@]4(C)[C@H]3C[C@H](O)[C@]12C [Big CHAP, N,N,bis-(3-D-gluconamidopropyl)-cholamide, reference compound]
solubility in water / aqueous solutions (in words) [1]: highly water soluble

Molecule: C[C@H](CCC(=O)NCCC[N+](C)(C)CCCS(=O)(=O)[O-])[C@H]1CC[C@H]2[C@@H]3[C@H](O)C[C@@H]4C[C@H](O)CC[C@]4(C)[C@H]3C[C@H](O)[C@]12C.O [Chaps, 3-[(3-Cholamidopropyl)dimethylammoniol]-1-propanesulfonate hydrate, reference compound]
gene transfer to the bladder epithelium (Table I) (bladder epithelium [3]): enhanced gene transfer dramatically

Molecule: COC(=O)CC[C@@H](C)[C@H]1CC[C@H]2[C@@H]3[C@H](O)C[C@@H]4C[C@H](O)CC[C@]4(C)[C@H]3C[C@H](O)[C@]12C [Impurity I]
cystitis / bladder irritation (bladder epithelium [2]): caused cystitis | cystitis / bladder irritation (bladder epithelium [2]; listed as Impurity 1): bladder irritation | β-galactosidase gene expression in the bladder epithelium (bladder epithelium [2]; impurities diluted in VPBS, 0.6 mg/ml or 6 mg/ml): did not lead to increased β-galactosidase gene expression

Molecule: C[C@H](CCC(=O)NCCS(=O)(=O)O)[C@H]1CC[C@H]2[C@@H]3CC[C@@H]4C[C@H](O)CC[C@]4(C)[C@H]3C[C@H](O)[C@]12C [Taurodeoxycholate, reference compound]
gene transfer to the bladder epithelium (Table I) (bladder epithelium [3]): enhanced gene transfer dramatically

Molecule: CCCCCCCCCCCCCC[N+](C)(C)CCCS(=O)(=O)[O-] [Zwittergent ® 3-14, reference compound]
gene transfer to the bladder epithelium (Table I) (bladder epithelium [3]): enhanced gene transfer dramatically

Molecule: C[C@H](CCC(=O)N(CCCNC(=O)[C@H](O)[C@@H](O)[C@H](O)[C@H](O)CO)CCCNC(=O)[C@H](O)[C@@H](O)[C@H](O)[C@H](O)CO)[C@H]1CC[C@H]2[C@@H]3[C@H](O)C[C@@H]4C[C@H](O)CC[C@]4(C)[C@H]3C[C@H](O)[C@]12C [purified Big CHAP (CALBIOCHEM®)]
gene transfer and expression (bladder epithelium [2]): only slightly enhanced; also recorded: reduced ability to enhance gene transfer

Molecule: C[C@H](CCC(=O)N(CCCNC(=O)[C@H](O)[C@@H](O)[C@H](O)[C@H](O)CO)CCCNC(=O)[C@H](O)[C@@H](O)[C@H](O)[C@H](O)CO)[C@H]1CC[C@H]2[C@@H]3[C@H](O)C[C@@H]4C[C@H](O)CC[C@]4(C)[C@H]3C[C@H](O)[C@]12C [purified Big CHAP (Sigma)]
gene transfer and expression (bladder epithelium [2]): reduced ability to enhance gene transfer | gene transfer and expression (bladder epithelium [2]; listed as purified Sigma BC): without any effect

Molecule: Pluronic F68 [reference compound]
gene transfer to the bladder epithelium (Table I) (bladder epithelium [3]): did not have similar effects
